Laboratory results from US20210290576A1, “STRUCTURALLY MODIFIED FATTY ACIDS FOR IMPROVING GLYCEMIC CONTROL AND TREATING INFLAMMATORY BOWEL DISEASE” (NORTHSEA THERAPEUTICS B.V., priority 2018, published 2021).
“Also recorded” adds a separate entry of the source.

Key:
[1] = Intestinal tissue distribution of radioactivity by quantitative whole-body autoradiography (QWBA); assay type: in vivo, male albino rats; conditions: single oral 50 mg/kg [14C]-Compound B
Description: Biological Example 7. Concentrations of Radioactivity in Intestinal Segments of Male Albino Rats after a Single Oral Administration of [14C]-Compound B at a Nominal Dose Level of 50 mg/kg Body Weight
This study was conducted to determine the intestinal tissue distribution of radioactivity in male albino rats following a single oral administration of [14C]-Compound B using quantitative whole-body autoradiography (QWBA). The tissue distribution in rats following a single oral dose of [14C]-Compound B at 50 mg/kg (Ca 5 MBq/kg) was studied by QWBA analysis up to 168 hours after dosing.

[2] = test system: IL6, IL1b, S100A8, TNFα, Reg3g, IL17a mRNA; experiment: Colonic mRNA levels of proinflammatory cytokines and biomarkers in DSS-induced colitis mice (real-time PCR); assay type: in vivo, C56BL/6J mouse; conditions: 126 and 252 mg/kg per day; normalized to HPRT; vs untreated mice
Description: The C56BL/6J mouse is a strain susceptible to DSS-induced colitis. To evaluate the efficacy and dosage of Compound B in treatment of DSS-induced colitis, inflammation was induced in 30 9-week old C56BL/6J mice by adding 1.5% DSS to the drinking water for 7 days. The mice were fed a standard chow diet that consisted of 30 weight percent wheat. The mice were divided into three groups of 10, and for each day of DSS administration each group was administered via oral gavage either (1) 100 μL corn oil per day (Control), (2) 126 mg/kg Compound B (dissolved in 100 μL corn oil) per day (“Compound B—Low” or “Compound B—L”), or (3) 252 mg/kg Compound B (dissolved in 100 μL corn oil) per day (“Compound B—High” or “Compound B—H”). Following the 7-day period of DSS induction, mice were sacrificed and their intestinal tissue was used for histopathological and gene expression analysis.
To evaluate the effect of treatment with Compound B on the levels of proinflammatory cytokines and biomarkers, total RNA was extracted from small and large intestinal tissue samples (>100 mg). cDNA was synthesized by reverse transcription and analyzed by real-time PCR. Results were normalized to the level of the housekeeping gene hypoxanthine guanine phosphoribosyltransferase (HPRT). The relative mRNA expression of the tested gene relative to HPRT expression was calculated using the 2^−ΔΔCt method as described in Pickert et al., J. Exp. Med., 2009, 206:1465-1472. Interleukin 6 (IL6), IL1b, calgranulin-A (S100A8), and tumor necrosis factor α (TNFα) have been implicated as mediators of IBD, including both ulcerative colitis and Crohn's disease. IL6, IL1b, and calgranulin-A are prominently expressed in inflammatory macrophages. IL22-dependent regenerating islet-derived 3 gamma (Reg3g) is induced in response to inflammation in epithelial cells. IL17 is secreted by Th17 T helper cells and innate lymphoid cells type 3 (ILC3).

active GLP-1 = experiment: Active GLP-1 during an oral glucose tolerance test (OGTT) and at 24 h in lean male SPD rats; assay type: in vivo, Sprague-Dawley (SPD) rats; conditions: in combination with DPP4 inhibitor (linagliptin); Compound A 74 mg/kg, Compound B 84 mg/kg, two oral doses
Description: Evaluation of the Acute Effects of Compound a and Compound B Upon Active GLP-1 wconcentrations during an oral glucose tolerance test (OGTT) and at 24 h in lean male SPD Rats
To establish the acute effects of oral administration of Compound A and Compound B upon active GLP-1 and insulin concentrations, lean (about 300 g) male Sprague-Dawley (SPD) rats were divided into groups (n=6-8) and fed 74 and 84 mg/kg body weight of Compound A or Compound B respectively, either with or without concurrent administration of a dipeptidyl peptidase 4 (DPP-4) inhibitor 60 minutes prior to an oral glucose tolerance test (OGTT) as outlined below. Parallel groups receiving either corn oil alone (corn oil+vehicle, n=10) or corn oil and a DPP-4 inhibitor (“DPP-4 i”) (corn oil+(DPP-4 i), n=10) were included as controls. The DPP-4 inhibitor was linagliptin.
A second oral dose of 74 and 84 mg/kg bodyweight of Compound A or Compound B respectively was administered at 240 minutes and ad lib feeding was initiated. A second dose of DPP-4 inhibitor was administered at 480 mins prior to lights out. Blood samples were collected at 24 h for measurement of active GLP-1 and insulin. All values are mean, figures depict mean values (SEM).

[3] = test system: B6.V-Lepob/Jrj mice (ob/ob), T2DM rodent model; experiment: Glucose tolerance (0-120 mins) after 28-day treatment in ob/ob mice; assay type: in vivo; conditions: 28 days; for glucose tolerance: 2 g/kg oral glucose load
Description: This study was carried out to assess the effects of chronic treatment with Compound B or Compound A on glucose tolerance in a T2DM rodent model.
For assessing the effects of Compound B, B6.V-Lepob/Jrj mice (ob/ob) mice were administered Compound B at one of 2 doses, 125 and 250 mg/kg for 28 days. […] After the oral glucose load, plasma glucose was measured at multiple time points from and AUC (0-120 mins) for glucose was calculated.

[4] = Excretion balance: recovery of radioactivity in excreta; assay type: in vivo, male albino rats; conditions: single oral 50 mg/kg [14C]-Compound B
Description: Biological Example 8. Recovery of Radioactivity in the Excreta of Male Albino Rats after a Single Oral Administration of [14C]-Compound B at a Nominal Dose Level of 50 mg/kg Body Weight
To assess Compound B clearance via urine versus feces, the excretion pattern of a single oral dose of [14C]-Compound B was determined in male albino rats. […] The total excretion of radioactivity following oral administration was >95% within the first 48 hours. Excretion via the urine accounted for 12% of the administered dose. […]

[5] = 250 mg/kg once daily oral gavage

For `CC/C=C\C/C=C\C/C=C\C/C=C\C/C=C\CCCCSC(CC)(CC)C(=O)O` [Compound B, 2-ethyl-2-((5Z,8Z,11 Z,14Z,17Z)-icosa-5,8,11,14,17-pentaenylthio)butanoic acid], the “accumulation in the caecum (time span)” value [1] was “from 4 hours onwards to 1 day”, the “accumulation in the large intestine (time)” value [1] was 8 h and the “time of peak concentrations in the small intestinal mucosa” value [1] was 4 h. For the same compound, the “relative colonic mRNA level of IL1b” value [2] was “reduced colonic expression; also recorded: dose-dependent decrease”, the “relative colonic mRNA level of IL6” value [2] was “reduced colonic expression; also recorded: dose-dependent decrease” and the “relative colonic mRNA level of IL17a” value [2] was “lack of change”. The “relative colonic mRNA level of Reg3g” value [2] was “reduced colonic expression; also recorded: dose-dependent decrease”, the “relative colonic mRNA level of S100A8” value [2] was “reduced colonic expression; also recorded: dose-dependent decrease” and the “relative colonic mRNA level of TNFα” value [2] was “reduced colonic expression; also recorded: dose-dependent decrease”. The “active GLP-1 concentrations at 24 h versus corn oil+vehicle” value (active GLP-1) was “significantly (p<0.01) increased”, the glucose tolerance ([3]; 125 mg/kg once daily oral gavage) was “improved glucose tolerance” and the “AUC (0-120 mins) glucose” value [3, 5] was “potent and highly significant (p<0.001) reduction”. The glucose tolerance [3, 5] was “improved glucose tolerance”, the “% Recovery of Administered Dose, Mean total radioactivity” value ([4]; 0-168 h, n = 3) was 101% and the “total excretion of radioactivity within the first 48 hours” value [4] was > 95%.
